From patent publication US20220401514A1, “ANTIMICROBIAL, BACTERIOPHAGE-DERIVED POLYPEPTIDES AND THEIR USE AGAINST GRAM-NEGATIVE AND ACID-FAST BACTERIA” (CONTRAFECT CORPORATION, priority 2019, published 2022)
Converted amounts (≈) assume the structure as drawn. Where two headings read alike, the source gives them in different places.

Legend:
[1] = tested on: M. avium; assay: 45 hr MIC against M. avium (NTM); type: cell-based, Mycobacterium avium; conditions: Mycobacterium avium, ATCC700898, 45 h, read-out: 45 hr MIC; M. avium Chester ATCC 700898
[2] = tested on: M. intracellulare; assay: 45 hr MIC against M. intracellulare (NTM); type: cell-based, Mycobacterium intracellulare; conditions: Mycobacterium intracellulare, ATCC13950, 45 h, read-out: 45 hr MIC; M. intracellulare (Cuttino and McCabe) Runyon ATCC 13950
[3] = tested on: M. kansasii Hauduroy ATCC 12478; assay: 45 hr MIC against M. kansasii (NTM), Mueller Hinton broth; type: cell-based, Mycobacterium kansasii; conditions: Mycobacterium kansasii, ATCC12478, 45 h, read-out: 45 hr MIC
[4] = tested on: P. aeruginosa strain CFS-1292; assay: Checkerboard assay (FICI) with antibiotics, P. aeruginosa; type: cell-based, Pseudomonas aeruginosa; conditions: P. aeruginosa CFS-1292
Method: Any known method to assess MIC may be used.
Checkerboards are constructed by first preparing columns of e.g., a 96-well polypropylene microtiter plate, wherein each well has the same amount of antibiotic diluted 2-fold along the horizontal axis. […] Bacteria are added to the drug combinations at concentrations of 1×10^5 […] in CAA, for example, with or without human serum or pulmonary surfactant. […] Summation fractional inhibitory concentrations (ΣFICs) are calculated for each drug and the minimum ΣFIC value (ΣFICmin) is used to determine the effect of the Chp peptide/antibiotic combination.
Checkerboard assays. […] Checkerboards were constructed by first preparing columns of a 96-well polypropylene microtiter plate, in which each well had the same amount of antibiotic diluted 2-fold along the horizontal axis. […] Summation fractional inhibitory concentration index (FICIs) were calculated for each drug and the minimum FICI was used to determine synergy. FICIs were calculated as follows: FICI=FIC A+FIC B, where FIC A is the MIC of each antibiotic in the combination/MIC of the each antibiotic alone, and FIC B is the MIC of each Chp peptide in the combination/MIC of each Chp peptide alone. The combination is considered synergistic when the FICI is ≤0.5, strongly additive when the FICI is >0.5 to <1, additive with the FICI is 1-<2, and antagonistic when the FICI is ≥2.
In the checkerboard assay, fractional inhibitory concentration index (FICI) values are calculated.

[5] = tested on: Escherichia coli; assay: microbe, parasite or virus in culture; type: cell-based; conditions: Escherichia coli, control agents of Table 8, read-out: MIC (in brackets beside MBEC)
Outline: (§1)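 Peptide MICs were determined by growth inhibition in CAA medium supplemented with human serum.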

[6] = tested on: Enterobacter cloacae; assay: microbe, parasite or virus in culture; type: cell-based; conditions: Enterobacter cloacae, CCUG63317; E. cloacae (CCUG 63317); control agents of Table 8; read-out: MIC (in brackets beside MBEC)
Outline: as §1

[7] = tested on: Pseudomonas aeruginosa; assay: microbe, parasite or virus in culture; type: cell-based; conditions: Pseudomonas aeruginosa, ATCC27853; P. aeruginosa (ATCC 27853); control agents of Table 8; read-out: MIC (in brackets beside MBEC)
[8] = tested on: Acinetobacter baumannii; assay: microbe, parasite or virus in culture; type: cell-based; conditions: Acinetobacter baumannii, ATCCBAA747; A. baumanni (ATCC BAA-747); control agents of Table 8; read-out: MIC (in brackets beside MBEC)
[9] = tested on: M. fortuitum; assay: 45 hr MIC against M. fortuitum (NTM); type: cell-based, Mycobacterium fortuitum; conditions: Mycolicibacterium fortuitum, ATCC6841, 45 h, read-out: 45 hr MIC; M. fortuitum subsp. Fortuitum da Costa Cruz. ATCC 6841
[10] = tested on: M. scrofulaceum; assay: 45 hr MIC against M. scrofulaceum (NTM); type: cell-based, Mycobacterium scrofulaceum; conditions: Mycobacterium scrofulaceum, ATCC19981, 45 h, read-out: 45 hr MIC; M. scrofulaceum Prissick and Masson ATCC 19981

SMILES: NC[C@H]1O[C@H](O[C@H]2[C@H](O)[C@@H](O[C@H]3O[C@H](CO)[C@@H](O)[C@H](N)[C@H]3O)[C@H](N)C[C@@H]2N)[C@H](N)C[C@@H]1O [tobramycin, reference compound]
- MIC [1]: 0.125 µg/mL (≈ 0.267 µM)
- MIC [2]: 0.25 µg/mL (≈ 0.535 µM)
- MIC [3]: 16 µg/mL (≈ 34.2 µM)
- Antibiotic FIC ([4]; combined with Chp2-M1): 0.25
- Antibiotic FIC ([4]; combined with Chp2): 0.25
- Antibiotic FIC ([4]; combined with Chp4-M1): 0.25
- Antibiotic FIC ([4]; combined with Chp6-M1): 0.25
- Antibiotic FIC ([4]; combined with Chp10-M1): 0.25
- Antibiotic FIC ([4]; combined with Unp2-M1): 0.25
- MIC ([5]; ATCC25922, E. coli (ATCC 25922)): < 0.5 µg/mL
- MIC ([5]; ATCC35329, E. coli (ATCC 35329)): < 0.5 µg/mL
- MIC ([5]; E. coli (EC2)): < 0.5 µg/mL
- MIC [6]: < 0.5 µg/mL
- MIC [7]: < 0.5 µg/mL
- MIC [8]: < 0.5 µg/mL
- MIC [9]: 4 µg/mL (≈ 8.56 µM)
- MIC [10]: 0.25 µg/mL (≈ 0.535 µM)
